This note sets out measurements from PubChem BioAssay (NCI).

Structures are written as SMILES.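 Interpolation was linear, between the two tested concentrations surrounding the appropriate level; five concentrations were tested over 48 hours in 96-well plates. At the GI50, growth is halved. TGI denotes the concentration required for complete inhibition of growth.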 Some results are limits rather than exact numbers.

Some test systems named below: NCI-H23 lung; MOLT-4 leukemia; UACC-62 melanoma; UACC-257 melanoma; IGROV1 ovarian; A549 NSCLC; M14 melanoma; 786-0 renal; SK-OV-3 ovarian.
Common to all, as to assay: NCI-60 cell line screen, 48 h

On to `CC(C)c1cc2c(O)c(c1)Cc1cc(C(C)C)cc(c1O)Cc1cc(C(C)C)cc(c1O)Cc1cc(C(C)C)cc(c1O)Cc1cc(C(C)C)cc(c1O)Cc1cc(C(C)C)cc(c1O)C2`, for which the TGI with NCI-H23 lung, in the experiment with MOLT-4 leukemia, in the experiment on UACC-62 melanoma, in the experiment on UACC-257 melanoma, in the experiment on IGROV1 ovarian and in the experiment with A549 NSCLC was more than 100 µM each time. The TGI in the experiment on M14 melanoma and with 786-0 renal was more than 100 µM in each case.
`O=C(O)c1oc2ccc([N+](=O)[O-])c3c2c1CCC3`: the TGI in the experiment with NCI-H23 lung, with UACC-257 melanoma, with A549 NSCLC, in the experiment on M14 melanoma and in the experiment with 786-0 renal was more than 100 µM throughout.
Consider `C/C(=N\n1c(N)c(C#N)c(-c2ccc(Cl)cc2)c(C#N)c1=O)c1cccnc1`, for which the GI50 with NCI-H23 lung, with MOLT-4 leukemia, in the experiment on UACC-62 melanoma, in the experiment with UACC-257 melanoma, in the experiment with IGROV1 ovarian and in the experiment with A549 NSCLC was more than 100 µM in each case. Moreover, the GI50 with M14 melanoma, in the experiment with SK-OV-3 ovarian and in the experiment on 786-0 renal was more than 100 µM throughout. The TGI with NCI-H23 lung, in the experiment with MOLT-4 leukemia, in the experiment on UACC-62 melanoma, in the experiment with UACC-257 melanoma, with IGROV1 ovarian and in the experiment with A549 NSCLC was more than 100 µM each time. For the same molecule, the TGI in the experiment on M14 melanoma, in the experiment with SK-OV-3 ovarian and in the experiment with 786-0 renal was more than 100 µM in each case.
For the molecule `CC1=C[C@H]2C[C@@]3(C)O[C@@H]([C@]4(C)CC[C@H]([C@@H](C)C(=O)O)OO4)CC3C(C)(C)[C@H]2CC1` (stereo partly drawn), the TGI in the experiment with NCI-H23 lung was found to be 3.55 µM; in the experiment on UACC-257 melanoma, 3.17 µM; in the experiment with A549 NSCLC, 3.62 µM; in the experiment with M14 melanoma it was 2.96 µM; with 786-0 renal it was 4.99 µM.
Consider `CN(C)c1ccc(/C=N/Nc2ccc(-c3nc4ccccc4[nH]3)cc2)cc1`, for which the GI50 was 13.8 µM in the experiment on NCI-H23 lung; 8.32 µM in the experiment with UACC-62 melanoma; 9.81 µM in the experiment with UACC-257 melanoma; 9.37 µM in the experiment on IGROV1 ovarian; 9.33 µM in the experiment on A549 NSCLC; 13.2 µM with M14 melanoma. Further, the GI50 in the experiment with SK-OV-3 ovarian was 21.2 µM; with 786-0 renal it was 10.6 µM. Moreover, the TGI in the experiment on NCI-H23 lung was 45.5 µM; with UACC-62 melanoma, 24.3 µM; with UACC-257 melanoma, 25.8 µM; in the experiment with IGROV1 ovarian, more than 50 µM; in the experiment with A549 NSCLC, 27.1 µM; in the experiment on M14 melanoma, 46.8 µM. Moreover, the TGI in the experiment on SK-OV-3 ovarian is more than 50 µM; in the experiment with 786-0 renal it was 38.6 µM.
For `C[C@@H]1CC[C@H]2C(CN3CCN(CC4=C(C(F)(F)F)O[C@@H]5O[C@@]6(C)CC[C@H]7[C@H](C)CC[C@@H]4[C@@]57OO6)CC3)=C(C(F)(F)F)O[C@@H]3O[C@@]4(C)CC[C@@H]1[C@]32OO4`, the GI50 in the experiment on NCI-H23 lung was 2.07 µM; with MOLT-4 leukemia, 5.35 µM; in the experiment on UACC-62 melanoma, 6.35 µM; in the experiment on UACC-257 melanoma it was 1.95 µM; in the experiment with IGROV1 ovarian it was more than 27.4 µM; with A549 NSCLC, 3.31 µM. Further, the GI50 in the experiment with M14 melanoma was 5.74 µM; with SK-OV-3 ovarian it was more than 100 µM; with 786-0 renal, 1.8 µM. The TGI with NCI-H23 lung is more than 100 µM; with MOLT-4 leukemia, more than 100 µM; in the experiment on UACC-62 melanoma, more than 100 µM; in the experiment on UACC-257 melanoma, more than 31.5 µM; in the experiment on IGROV1 ovarian, more than 100 µM; with A549 NSCLC it was more than 100 µM. The values for the TGI in the experiment on M14 melanoma, in the experiment with SK-OV-3 ovarian and with 786-0 renal were more than 100 µM, more than 100 µM and more than 37.3 µM, respectively.
For `Cc1ccc(C)c2sc3cc(=O)ccc-3nc12`, the TGI with NCI-H23 lung is more than 100 µM; in the experiment with MOLT-4 leukemia, 69.6 µM; with UACC-62 melanoma it was 33.6 µM; with UACC-257 melanoma it was more than 100 µM; in the experiment with IGROV1 ovarian, more than 100 µM; in the experiment on A549 NSCLC, more than 100 µM. Further, the TGI is 42.7 µM with M14 melanoma, more than 100 µM with SK-OV-3 ovarian and more than 100 µM with 786-0 renal.
In the case of `CCOc1ccc(N2C(N)=NC(N)=NC2(C)C)cc1`, the GI50 in the experiment on NCI-H23 lung is 58.8 µM; with MOLT-4 leukemia it was 65.6 µM; in the experiment on UACC-62 melanoma, 43.8 µM; in the experiment on UACC-257 melanoma, more than 100 µM; with IGROV1 ovarian, 46.5 µM; in the experiment on A549 NSCLC, 50.1 µM. The GI50 was more than 100 µM in the experiment on SK-OV-3 ovarian and 44.9 µM in the experiment with 786-0 renal. In addition, the TGI in the experiment on NCI-H23 lung, with MOLT-4 leukemia, in the experiment with UACC-62 melanoma, in the experiment with UACC-257 melanoma, with IGROV1 ovarian and in the experiment with A549 NSCLC was more than 100 µM throughout. The TGI in the experiment with SK-OV-3 ovarian and in the experiment with 786-0 renal was more than 100 µM throughout.
As to `Nc1nc(Cl)cc(NCCCCCCCCCCNc2cc(Cl)nc(N)n2)n1`, the TGI with NCI-H23 lung, in the experiment on UACC-62 melanoma, in the experiment on UACC-257 melanoma, in the experiment on IGROV1 ovarian, with A549 NSCLC and in the experiment on M14 melanoma was more than 100 µM each time. Also, the figures for the TGI in the experiment with SK-OV-3 ovarian and in the experiment with 786-0 renal were more than 100 µM and 91.5 µM, respectively.
